One experiment relates to MyD88. The experiment in a line: Western blot of MyD88 in oral keratinocytes. In kind it is cell-based, human. To be noted: treated with CsA and LPS to simulate the disease, FIG. 35. Here is the method:
(§1) Cell Culture. Normal human oral keratinocytes (NOKSI) and fibroblast (HOF) cells were maintained in Dulbecco […] Eagle's medium (Sigma-Aldrich, St. Louis, MO, USA) supplemented with 10% fetal bovine serum (Atlas Bio-logicals, Fort Collins, CO, USA) and 100 units/mL penicillin and 100 μg/mL streptomycin (LifeTechnologies, Carlsbad, CA, USA). Cells were grown in incubator at 37° C. in a humidified chamber with 5% CO2.
Drugs treatment in cell culture. The cells were treated alone or with different combination of lipopolysaccharide, cyclosporine, phenytoin, and folic acid. All of them were purchased from Sigma-Aldrich (St. Louis, MO, USA). Each of them were used from 0 μg/ml to 40 μg/ml and the optimum concentration were found 10 μg/ml.
Western blot analysis. Cells were seeded in 60 mm plates with a density of 5×10^5 cells per plate and washed briefly with Dulbecco's phosphate-buffered saline (Gibco, Waltham, MA, USA). Whole cell lysates were prepared using RIPA lysis buffer containing protease inhibitor cocktail (Sigma-Aldrich). Total protein concentration was determined using the BCA reagent (Pierce, Waltham, MA, USA). 20 μg of total protein were resolved on sodium dodecyl sulfate-polyacrylamide gel electrophoresis and transferred to polyvinylidenedifluoride membrane and immunoblotted. The blots were incubated for 1 h in 1% bovine serum albumin (BSA) (Sigma-Aldrich) to block the non-specific bindings followed by over-night incubation in primary antibodies (MyD88 and pP65 from Cell Signaling Technology, and human LITAF ThermoFisher Sigma) at 4° C. on shaker. Next day, blots were washed for three times (10 min each) in Tris-buffered saline containing 1% Tween20 (TBST) followed by incubation with secondary antibody (Goat anti-rabbit IgG HRP) with 1:10,000 dilution for 1 h. Following washes, bands were visualized using gel documentation Imaging Systems (BioRad). The band intensities were quantified using software ImageJ (NIH, USA) and relative protein levels were normalized by β-actin (Cell Signaling). To perform the western blot of animal tissue samples, the gingival tissues were collected from both BABLB/c and C57BL/6 mice studies. The soft tissues were separated from the mandibular bone and then crunched. The Bradford assay was performed to measure the protein concentration of each sample. After normalization, 20 μg of whole tissue protein lysate were proceeded for western blot analysis.

Experiment [1] has as its system Collagen type I alpha 1 (Col1a1). The experiment is described as follows: Collagen (Col1a1) expression in Human Oral Fibroblasts, QPCR. In kind it is cell-based. Particulars: fibroblasts treated with TGF-β, FIG. 1. As for the experimental part: as §1
Human Oral Fibroblasts (HOF) cells were seeded in 60 mm plates with a density of 2.5×10^4/cm^2 and treated with condition (CM) media collected from Oral Keratinocytes containing LPS (10 μg/ml), CSA (10 μg/ml), Phenytoin (10 μg/ml), or Folic acid (10 μg/ml) and incubated for 24 hours. The Collagen type I alpha 1 (Col1a1) gene expression was determined by QPCR. HOF cells were treated with rTGF-β, SB-431542 (SB), rTNF-α, or TNF-α inhibitor (TNF-α inh). Quantitative real-time PCR results showing the expression of Col1a1 in HOF cells after the treatment. (p<0.05).

With Lipopolysaccharide, in the experiment with MyD88, the “MyD88 expression in human oral keratinocytes after disease-simulating treatment” value was “robustly induce MyD88 expression”.

Take TGF-β: in experiment [1], the “collagen expression in fibroblasts” value is reported as “induce collagen expression”.

These data come from US20260000496A1, “MATERIALS AND METHODS FOR DRUG-INDUCED GINGIVAL OVERGROWTH” (Optimed Technology, Inc., priority 2019, published 2026).
